Drawing on ChEMBL document CHEMBL1146528, “Isolation and structures of avicins D and G: in vitro tumor-inhibitory saponins derived from Acacia victoriae” (J Nat Prod, 2003), this text covers IC50 for five molecules.

Converted amounts (≈) assume the structure as drawn.

The test system of the assay is Jurkat. Description: Cytotoxicity against human Jurkat cells after 72 hrs by MTT assay. The assay is classed as functional, cell-based. (Formazan colour is commonly taken as a measure of viable cells.)
For the molecule `CC(=O)N[C@H]1[C@H](O[C@H]2CC[C@]3(C)[C@H]4CC=C5[C@@H]6CC(C)(C)[C@@H](O)C[C@]6(C(=O)O)[C@H](O)C[C@@]5(C)[C@]4(C)CC[C@H]3C2(C)C)O[C@H](CO[C@@H]2O[C@H](C)[C@H](O)[C@H](O)[C@H]2O[C@@H]2OC[C@@H](O)[C@H](O)[C@H]2O)[C@@H](O)[C@@H]1O`, the concentration for half-maximal inhibition (IC50) (commonly the concentration that gives 50% inhibition) was over 100 µg/mL.
The result for `CC1(C)C[C@H]2C3=CC[C@@H]4[C@@]5(C)CC[C@H](O)C(C)(C)[C@@H]5CC[C@@]4(C)[C@]3(C)C[C@@H](O)[C@@]23C[C@@H]1OC3=O` reads over 100 µg/mL; that for `C=C[C@](C)(O)CC/C=C(\CO)C(=O)O[C@H]1[C@H](O)[C@@H](O)[C@H](O[C@@](C)(C=C)CC/C=C(\CO)C(=O)O[C@H]2C[C@]3(C(=O)O[C@@H]4O[C@H](CO)[C@@H](O)[C@H](O)[C@H]4O[C@@H]4O[C@@H](C)[C@H](O[C@@H]5O[C@@H](CO)[C@H](O)[C@H]5O)[C@@H](O[C@@H]5O[C@H](CO)[C@@H](O)[C@H](O)[C@H]5O)[C@H]4O)[C@H](O)C[C@]4(C)C(=CC[C@@H]5[C@@]6(C)CC[C@H](O[C@@H]7O[C@H](CO[C@@H]8O[C@H](C)[C@H](O)[C@H](O)[C@H]8O[C@@H]8OC[C@@H](O)[C@H](O)[C@H]8O)[C@@H](O)[C@H](O)[C@H]7NC(C)=O)C(C)(C)[C@@H]6CC[C@]54C)[C@@H]3CC2(C)C)O[C@@H]1C` [AVICIN D], 0.58 µg/mL (≈ 0.278 µM); that for `C=C[C@](C)(O)CC/C=C(\C)C(=O)O[C@H]1[C@H](O)[C@@H](O)[C@H](O[C@@](C)(C=C)CC/C=C(\CO)C(=O)O[C@H]2C[C@]3(C(=O)O[C@@H]4O[C@H](CO)[C@@H](O)[C@H](O)[C@H]4O[C@@H]4O[C@@H](C)[C@H](O[C@@H]5O[C@@H](CO)[C@H](O)[C@H]5O)[C@@H](O[C@@H]5O[C@H](CO)[C@@H](O)[C@H](O)[C@H]5O)[C@H]4O)[C@H](O)C[C@]4(C)C(=CC[C@@H]5[C@@]6(C)CC[C@H](O[C@@H]7O[C@H](CO[C@@H]8O[C@H](C)[C@H](O)[C@H](O)[C@H]8O[C@@H]8OC[C@@H](O)[C@H](O)[C@H]8O)[C@@H](O)[C@H](O)[C@H]7NC(C)=O)C(C)(C)[C@@H]6CC[C@]54C)[C@@H]3CC2(C)C)O[C@@H]1C` [AVICIN G], 0.22 µg/mL (≈ 0.106 µM).
As to `C=C[C@@](C)(CC/C=C(\CO)C(=O)O[C@H]1C[C@]2(C(=O)O[C@@H]3O[C@H](CO)[C@@H](O)[C@H](O)[C@H]3O[C@@H]3O[C@@H](C)[C@H](O[C@@H]4O[C@@H](CO)[C@H](O)[C@H]4O)[C@@H](O[C@@H]4O[C@H](CO)[C@@H](O)[C@H](O)[C@H]4O)[C@H]3O)[C@H](O)C[C@]3(C)C(=CC[C@@H]4[C@@]5(C)CC[C@H](O[C@@H]6O[C@H](CO[C@@H]7O[C@H](C)[C@H](O)[C@H](O)[C@H]7O[C@@H]7OC[C@@H](O)[C@H](O)[C@H]7O)[C@@H](O)[C@H](O)[C@H]6NC(C)=O)C(C)(C)[C@@H]5CC[C@]43C)[C@@H]2CC1(C)C)O[C@@H]1O[C@H](C)[C@@H](O)[C@H](O)[C@H]1O` [JULIBROSIDE J29], the 50% inhibitory concentration (IC50) stood at 5.8 µg/mL (≈ 3.05 µM).
